In patent US20250268829A1, “INHALED ANTIBACTERIAL FORMULATIONS FOR TREATING LUNG INFECTIONS” (Board of Regents, The University of Texas System, priority 2022, published 2025):
Converted amounts (≈) assume the structure as drawn.

How the values were obtained:
Calu-3 cells = assay: Cell viability, MTT assay; format: cell-based
Description: Calu-3 cells between passage 14-17 were grown in Dulbecco's Modified Eagle Medium (DMEM)+10% Fetal Bovine Serum (FBS)+1% Non-Essential Amino Acids (NEAA)+1% Penicillin Streptomycin (PS)+1% Sodium pyruvate in a 75 cm^2 flask. The media was changed every other day.
To assess the toxicity of the tigecycline powders, Calu-3 cells were seeded into 96-well tissue culture plates at a seeding density of 9000 cells/well. The cells were cultured overnight in media. […] The powders were dissolved in media and 100 μL of each concentration was added to the wells. Control wells containing only media were also set up. […] […] At 3 hours, MTT reagent/culture media was removed and 150 μl of MTT dissolving solvent was added to the well. The well-plate was wrapped in foil and kept on an electronic shaker for 15 minutes. The absorbance was then read at 590 nm using the Tecan microplate reader (Tecan Global Headquarters, Männedorf, Switzerland).

[1] = HPLC stability upon aerosolization and storage; format: physicochemical; settings: capsule (before aerosolization) and NGI stage 4 (after aerosolization) samples
Description: Stability upon aerosolization was assessed using High-Performance Liquid Chromatography (HPLC) by the method described by Lucelia Magalhaes da Silva and Herida Regina Nunes Salgado in Validation of a Stability-Indicating RP-LC Method for the Determination of Tigecycline in Lyophilized Powder, J. Chromatogr. Sci. 51:192-199 (2012). The powder accumulated on Stage 4 (after aerosolization), as well as the capsule (before aerosolization) after running the NGI, was dissolved in a buffer containing 0.015 M oxalic acid and 0.015 M sodium phosphate monobasic at pH 7. The mobile phase used was 75 (0.015 M oxalic acid and 0.015 M sodium phosphate monobasic at pH 7): 25 (Acetonitrile). The flow rate was kept at 1 mL/min and UV absorbance was measured at 245 nm. A forcefully degraded sample (tigecycline left in water for 1 week at RT without protection from light) was also incorporated as a control to assess the ability of the method to detect degradants.
The milled powder was stored for 30 days at 25° C./60% RH and 45° C./75% RH, as specified by the International Council for Harmonization (ICH) intermediate and accelerated stability conditions using sealed amber vials. At the 30-day and 6 month time point, the powder was characterized for its physicochemical properties, stability, and aerosol performance. […]

Mycobacterium abscessus = assay: In vitro efficacy (MIC) against Mycobacterium abscessus; format: cell-based; settings: Mycobacteroides abscessus, Mab in Middlebrook 7H9 broth; read-out: minimal inhibitory concentration (MIC)
Description: Mab was cultured in Middlebrook 7H9 liquid broth for 48 hours. 100 μL of inoculum was then added to 96 well plate with 50 μL of different concentrations of Tigecycline (0.1 to 240 μg/mL) (FIG. 3).

Calu-3 cell monolayer = assay: Drug permeability across air-liquid interface monolayer; format: in vitro ADME
Description: Calu-3 cells were plated at a cell density of 33,000 cells/well in 24-well transwell inserts on the apical side and 500 μL media was added to the basolateral side. 48 hours after plating the cells, the cells were airlifted (i.e the media from the apical and basolateral side was aspirated and only the basolateral side was replaced with media).
Cell integrity of the Calu-3 monolayer was measured every other day after airlifting. Briefly, the media from the basolateral side was aspirated. 200 μL of Hank's balanced salt solution (HBSS) buffer was added to the apical side and 500 μL of HBSS was added to the basolateral side. The transepithelial electrical resistance (TEER) was measured using an epithelial Voltohmmeter. The short electrode was dipped into the buffer on the apical side and the longer electrode was dipped into the buffer on the basolateral side. Using the measured value the TEER was calculated using equation (2): […]
The permeation experiments were carried out between days 5-7 after airlifting when the TEER values were ˜700Ω which indicates epithelial cell integrity and the absence of a leaky monolayer. The amount of drug transported across the cell layer were measured as follows: Milled and unmilled powders of tigecycline were dissolved in 200 μL of HBSS at a concentration of 10 μM and 20 μM. The media in the basolateral side was replaced by HBSS. 10 μL sample was collected from the basolateral side at the following intervals: 5 min, 15 min, 30 min, 45 min, 60 min, 2 hours, 4 hours, 6 hours, 8 hours, 12 hours, and 24 hours. After each aliquot, 10 μL of HBSS buffer was replaced into the basolateral chamber. This procedure was repeated to measure the permeability from the basolateral side to the apical side where samples were aliquoted from the apical side. The apparent permeability can be calculated as follows:
[formula] • Where • dQ/dt=Concentration flux • A=Surface area • Co=initial concentration

S. maltophilia [2] = settings: cited from earlier work
S. maltophilia biofilm = assay: Biofilm eradication (MBEC), XTT assay; format: cell-based, Stenotrophomonas maltophilia
Description: (§1) Stenotrophomonas maltophilia was obtained from American Type Culture Collection (ATCC, Manassas, VA) (ATCC 13637). S. maltophilia dried pellet was reconstituted in nutrient broth and frozen until further use. An inoculation loop was used to collect S. maltophilia from the stock solution and was streaked onto nutrient agar plates. The plates were incubated at 37° C. for 24 hours. At the 24-hour point, an inoculation loop was used to transfer bacteria from the plate to 5 mL of liquid nutrient broth. The bacteria in the liquid medium were left overnight on a shaker at 37° C.
S. maltophilia was grown as described above. 200 μL of the bacteria in nutrient broth was added onto 96 well plates for varying amounts of time ranging from 1 day to 5 days. The bacterial biomass at each time point was assessed using crystal violet assay. Briefly, the liquid media was aspirated at each time point, and the wells were washed twice with 200 μL of phosphate-buffered saline (PBS). […] The bound dye was then solubilized in 33% v/v acetic acid, and the absorbance was measured at 595 nm. […]
200 μL of this standardized culture was added to 96 well plates and allowed to grow overnight at 37° C. […] At 24 hours, the viability of the bacteria was evaluated using the XTT assay. […] After 3 hours, the absorbance was measured at 490 nm.

S. maltophilia [3] = assay: Minimum inhibitory concentration, OD 600; format: cell-based, Stenotrophomonas maltophilia
Description: as §1
Liquid bacterial culture was prepared as described above. 200 μL of the overnight liquid culture was added to 96 well plates. Varying concentrations of TIG were added to the 96 well plates ranging from 0.12 μg/mL to 64 μg/mL. All TIG concentrations were tested in triplicate. The well plate was allowed to incubate at 37° C. for 24 hours, and the MIC was determined using the OD 600 values.

[4] = Geometric particle size distribution, HELOS laser diffraction with RODOS dispersion; format: physicochemical; settings: Avg.
Description: HELOS laser diffraction instrument (Sympatec Americas, Pennington, NJ) using the RODOS dispersion feature was used to assess the geometric particle size distribution of both the milled and unmilled powders. The particle size distribution was measured at different pressures from 0.5-3 bar to analyze the effect of dispersion pressure on particle deaggregation. Measurements that were between 5% and 25% optical density were averaged to determine particle size distribution.

[5] = True density, helium multipycnometer; format: physicochemical
Description: The true density of the processed powders was measured using a helium multipycnometer (Quantachrome Instruments, Boynton Beach, FL) with a micro-sample cell. The sample cell was filled to at least 75% of the total volume with milled or unmilled tigecycline powder. Using equation (1), the pressure of both the reference cell (P1) and sample cell (P2) was determined, and the true volume of the sample was calculated as follows:
For the micro-sample cell utilized, Vc was calibrated at 11.76156 cm^3 and VR=6.34216 cm^3. The sample weight was divided by the measured true volume to obtain the true density. Measurements were repeated until the standard deviation of ten consecutive true density measurements was less than 0.01 g/mL.

[6] = Water content by thermogravimetric analysis (TGA); format: physicochemical; settings: baseline
Description: The water content of the powders was assessed using thermogravimetric analysis (TGA). About 5 mg of powder was loaded into a 70 μL alumina crucible. The samples were heated from 35-350° C. at a rate of 10° C./min.
(§2) The milled powder was stored for 30 days at 25° C./60% RH and 45° C./75% RH, as specified by the International Council for Harmonization (ICH) intermediate and accelerated stability conditions using sealed amber vials. At the 30-day and 6 month time point, the powder was characterized for its physicochemical properties, stability, and aerosol performance. The results obtained from day 30 and 6 months were compared to baseline measurements to declare storage stability.

[7] = Water sorption by dynamic vapor sorption (DVS); format: physicochemical; settings: baseline
Description: Dynamic vapor sorption (DVS) analysis of the powders was performed using an Automated Water Sorption Analyzer (Surface Measurement Systems, London, UK). Briefly, 5-10 mg of milled and unmilled TIG powder was used as the sample. The samples were allowed to equilibrate under nitrogen until dm/dt<0.002%. Water sorption was analyzed as 10 steps from 0% relative humidity (RH) to 100% RH where step dm/dt was set at 0.075% at 10% increments in RH.
as §2

[8] = In vitro aerosol performance, Next Generation Impactor (NGI); format: physicochemical; settings: for Emitted Dose / Emitted Fraction / GSD / MMAD / RF (<5 μm): 4 kPa; for RF (<5 μm): percent of total dose
Description: The in vitro aerosol performance of the milled and unmilled powders was assessed using Next Generation Impactor (NGI) with a low and high resistance DPI (RS01 Monodose DPI (RS01 DPI; Plastiape). About 10 mg of the powder was added to size 3 hydroxypropyl methylcellulose (HPMC) capsules and the analysis was performed for a length of time sufficient to draw 4 L of air through the NGI, as per USP requirements. The pressure drop across the system was equivalent to either 4 kPa or 1 kPa. The flow rates required across the pressure drop to draw 4 L of air through the NGI, as per USP requirements, were 93 L/min for 4 kPa and 47.6 L/min for 1 kPa. The aerosol performance was compared between the low resistance device and the high resistance device. Also, the performance of the Plastiape devices was compared to that of Handihaler, a commercially used DPI. TIG deposited in each stage was dissolved in a buffer containing 0.015 M oxalic acid and 0.015 M sodium phosphate monobasic at pH 7 and quantified using a UV-Visible spectrophotometer (Tecan Systems, Inc., San Jose, CA, USA) at 245 nm. The aerodynamic particle size metrics that were calculated include emitted dose (ED), emitted fraction (EF), the respiratory fraction (RF), fine particle dose (FPD), fine particle fraction (FPF), mass median aerodynamic diameter (MMAD), and geometric standard deviation (GSD). […]

## CN(C)c1cc(NC(=O)CNC(C)(C)C)c(O)c2c1C[C@H]1C[C@H]3[C@H](N(C)C)C(O)=C(C(N)=O)C(=O)[C@@]3(O)C(O)=C1C2=O [Tigecycline, tigecycline]
Calu-3 cells; 5 mM and 7.5 mM, 4-hour and 8-hour point
  effect on Calu-3 cell viability: significant cell death
Calu-3 cells; 4-hour and 8-hour point, submerged culture
  concentration up to which Calu-3 cells were viable: 2500 µM
Calu-3 cells; 12-hour point
  maximum concentration that allowed the cells to maintain their viability: 125 µM
Calu-3 cells; 24 hours
  maximum concentration that allowed the cells to maintain their viability: 25 µM
[1]
  degradation peaks in HPLC chromatograms: none of the degradation peaks were observed
Mycobacterium abscessus
  MIC: > 4 µg/mL
Calu-3 cell monolayer; apical to basolateral, across a 12-hour time point, HPLC limit of detection 1 μM
  tigecycline permeated through the cell monolayer: less than 1 μM
Calu-3 cell monolayer; at the end of the experiment
  drug remaining in the apical (donor) side: ~100%
Calu-3 cell monolayer; basolateral to apical direction
  permeability across the cell monolayer: impermeability
S. maltophilia [2]
  susceptibility of S. maltophilia: more than 90%
S. maltophilia biofilm; concentrations above 0.5 μM, 24 hours
  inhibition of biofilm formation: ~85%
S. maltophilia biofilm; concentrations lower than 0.5 μM
  inhibition of S. maltophilia biofilm formation: could not effectively inhibit
S. maltophilia [3]; 0.1 μg/mL and 0.25 μg/mL
  inhibition of growth of S. maltophilia: failed to inhibit bacterial growth
S. maltophilia [3]; 0.12 and 0.25 μg/mL
  OD 600 value normalized to control: ~1
S. maltophilia [3]; Stenotrophomonas maltophilia, 24 hours, OD 600, read-out: Minimum Inhibitory Concentrations (MIC)
  MIC: 0.5 µg/mL (≈ 0.854 µM)
S. maltophilia [3]; concentrations >0.5 μg/mL
  OD 600 values versus control: significantly lower than that of control
S. maltophilia [3]; concentrations equal to or greater than 0.5 μg/mL
  inhibition of growth of S. maltophilia: completely

## CN(C)c1cc(NC(=O)CNC(C)(C)C)c(O)c2c1C[C@H]1C[C@H]3[C@H](N(C)C)C(O)=C(C(N)=O)C(=O)[C@@]3(O)C(O)=C1C2=O [Unmilled tigecycline, tigecycline]
[4]; dispersing pressure 0.5 bar
  Dv90: 18.38 μm
[4]; dispersing pressure 1 bar
  Dv90: 16.29 μm
[4]; dispersing pressure 2 bar
  Dv90: 10.79 μm
[4]; dispersing pressure 3 bar
  Dv90: 9.49 μm
[4]; dispersing pressure 3 bar, listed as unmilled powders
  Dv90: 9.48 μm
[5]
  True Density: 1.282 ± 0.0004 g/mL
[6]
  Water content: negligible
[7]
  hygroscopicity: not hygroscopic
[8]; Handihaler
  Emitted Dose: 7.66 ± 5.11 mg
  Emitted Fraction: 64.60 ± 0.23%
  GSD: 1.13 ± 0.11
  MMAD: 8.27 ± 1.41 μm
  RF (<5 μm): 16.44 ± 2.12%
[8]; LR Plastiape
  Emitted Dose: 8.48 ± 0.25 mg
  Emitted Fraction: 90.20 ± 0.27%
  GSD: 1.25 ± 0.01
  RF (<5 μm): 28.59 ± 1.56%
[8]; LR Plastiape, listed as Unmilled
  MMAD: 5.73 ± 0.52 μm
[8]; LR Plastiape, listed as unmilled tigecycline
  MMAD: 5.73±0.52 μm
[8]; pressure drop of 4 kPa
  emitted dose deposited in the capsule, device, throat and early NGI stages: > 65%
[8]; pressure drop of 4 kPa, before storage
  Fine Particle Dose (FPD): 2.57 ± 0.06 mg
[8]; pressure drop of 4 kPa, before storage, particles below 5 μm with respect to emitted dose
  fine particle fraction (FPF): 31.70±1.83%
